# Experimental data as given in PubChem BioAssay AID651672 (The Scripps Research Institute Molecular Screening Center, 2012).
# Active and inactive are the calls of the source. The rule behind the calls is not given here.
# Biological target: Perilipin-1 (Homo sapiens) (UniProt O60240)
# Assay: ABHD5 and perilipin-1 interaction blockers – biochemical, luminescence, counter-screen for ABHD5-PLIN5 interaction inhibitor project, dose response (AID 651672);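 note: split Gaussia luciferase complementation between ABHD5 and PLIN1 fusion fragments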
# Conditions: ABHD5-PLIN1 interaction
# Perilipin-1 (Homo sapiens), sequence (O60240 whole entry, looked up, the tested form may be a part): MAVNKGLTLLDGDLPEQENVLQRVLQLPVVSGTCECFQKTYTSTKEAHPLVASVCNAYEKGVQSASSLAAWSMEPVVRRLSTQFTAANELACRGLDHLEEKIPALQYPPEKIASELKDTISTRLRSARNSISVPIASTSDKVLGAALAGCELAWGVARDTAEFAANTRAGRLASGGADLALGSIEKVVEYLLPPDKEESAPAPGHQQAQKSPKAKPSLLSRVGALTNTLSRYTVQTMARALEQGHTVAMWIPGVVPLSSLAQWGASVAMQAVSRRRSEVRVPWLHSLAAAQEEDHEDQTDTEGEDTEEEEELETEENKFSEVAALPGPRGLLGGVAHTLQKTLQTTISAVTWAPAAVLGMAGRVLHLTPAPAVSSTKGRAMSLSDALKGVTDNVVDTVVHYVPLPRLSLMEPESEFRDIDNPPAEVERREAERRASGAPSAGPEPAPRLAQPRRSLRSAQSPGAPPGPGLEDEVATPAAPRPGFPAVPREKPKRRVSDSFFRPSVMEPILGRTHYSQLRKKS
row,Compound,IC50
1,N#Cc1ccc(C(C(=O)Nc2ccc3c(c2)OCCO3)n2c(=O)c(-c3ccco3)nc3ccccc32)cc1 (stereo not drawn),7.22 µM
2,CS(=O)(=O)c1ccc(C(=O)NCCN2C(=O)S/C(=C\c3cccnc3)C2=O)cc1[N+](=O)[O-],5.14 µM
3,CN(C)CCCN(C(=O)CCc1ccccc1)c1nc2ccc(Br)cc2s1,8.53 µM
4,O=C(NCc1ccccc1)C(c1ccc(-c2ccccc2)cc1)n1c(=O)c(-c2ccco2)nc2ccccc21 (stereo not drawn),3.44 µM
5,CC(CCc1ccco1)NC(=O)CCc1nnc2ccc(NCc3ccccc3Cl)nn12 (stereo not drawn),2.03 µM
6,CCCc1nnc(NC(=O)c2nc(S(=O)(=O)Cc3cccc(C)c3)ncc2Cl)s1,2.83 µM
7,Cc1nnc(NC(=O)c2nc(S(=O)(=O)Cc3ccccc3C)ncc2Cl)s1,3.92 µM
8,O=C1NC(=S)NC(=O)C12C(c1ccccc1)NC(=S)NC2c1ccccc1 (stereo not drawn),4.34 µM
9,COc1cc(OC)cc(C(=O)NC(=S)N(Cc2ccccc2)C(C)C)c1,inactive
10,C=C[C@]1(C)C[C@@H](OC(=O)CSCCN(CC)CC)[C@]2(C)C(C)CC[C@]3(CCC(=O)[C@H]32)[C@@H](C)[C@@H]1O (stereo partly drawn),inactive
11,COc1ccc(-c2cc(N)n(S(=O)(=O)c3c(F)c(F)c(F)c(F)c3F)n2)cc1OC,9.95 µM
12,COc1ccccc1/C=C/C(=O)c1ccccc1,6.05 µM
13,COc1ccc(NC(=O)C(c2ccccc2)n2c(=O)c(-c3ccco3)nc3ccccc32)cc1 (stereo not drawn),8.47 µM
14,Cc1cccc(C)c1NC(=O)C(c1ccc(C#N)cc1)n1c(=O)c(-c2ccco2)nc2ccccc21 (stereo not drawn),2.66 µM
15,CC(=O)Oc1c(Cl)cc(N(C(C)=O)S(=O)(=O)c2ccccc2)c2ccccc12,3.88 µM
16,CC(C)(C)NC(=O)C(c1ccc(C#N)cc1)n1c(=O)c(-c2ccco2)nc2ccccc21 (stereo not drawn),1.41 µM
17,Cc1ccc2nc3cc([N+](=O)[O-])cc([N+](=O)[O-])c3cc2c1,0.801 µM

row,Compound,IC50
1,CCC1(C)N=C(c2ccc3c(c2)OCO3)CC(c2ccccc2O)N1 (stereo not drawn),1.06 µM
2,COc1ccc(C(C(=O)Nc2c(C)cccc2C)n2c(=O)c(-c3ccco3)nc3ccccc32)cc1 (stereo not drawn),1.88 µM
3,O=C(NC1CCCCC1)C(c1cc2ccccc2o1)n1c(=O)c(-c2ccco2)nc2ccccc21 (stereo not drawn),1.29 µM
4,CCC(C)NC(=O)Nc1ccc2c(c1)N(C)C(=O)c1ccccc1S2 (stereo not drawn),3.7 µM
5,Oc1c(C(c2ccccc2)N2CCCCC2)ccc2ccccc12 (stereo not drawn),1.01 µM
6,CCCCCNC(=O)C(c1ccc(C(F)(F)F)cc1)n1c(=O)c(-c2ccco2)nc2ccccc21 (stereo not drawn),2.91 µM
7,Cc1cccc(C)c1NC(=O)C(c1ccncc1)n1c(=O)c(-c2ccco2)nc2ccccc21 (stereo not drawn),7.15 µM
8,O=C(/C(=C/c1ccccc1)n1cncn1)c1ccc(Cl)cc1Cl,2.3 µM
9,CCCCOC(=O)Nc1cc(C(=O)OC)ccc1C(=O)OC,6.03 µM
10,Cc1ccc(O)c(C(=O)C=Cc2ccccc2)c1,2.46 µM
11,Cc1nc(-c2ccccc2)sc1C(=O)/C=C/c1ccccc1,2.77 µM
12,COc1cc2c(cc1OC)C(C)N(CCc1ccc(Cl)cc1)CC2 (stereo not drawn),inactive
13,CCC(=O)Nc1cccc(C(=O)/C=C/c2ccccc2)c1,1.99 µM
14,O=C(/C=C/c1ccc2c(c1)OCCCO2)c1ccccc1O,5.52 µM
15,CC1Sc2ccc(S(=O)(=O)N3CCC(C(=O)NCc4ccc(Cl)cc4)CC3)cc2NC1=O (stereo not drawn),8.37 µM
16,CCCCCNC(=O)C(c1ccccc1F)n1c(=O)c(-c2ccco2)nc2ccccc21 (stereo not drawn),1.09 µM
